Results published in PMC7403668, “Intellectual disability‐associated gene ftsj1 is responsible for 2′‐O‐methylation of specific tRNAs” (EMBO Reports, 2020).

Key:
FTSJ1-WDR6 = biological target: T1, FTSJ1-WDR6 (Homo sapiens, UniProt Q9UET6); experiment: tRNA […]'-O-methyl transfer, UPLC-MS/MS of Gm34; type: biochemical; details: methyl donor, 100 μM SAM; co-substrate 5 μM tRNAPhe(GAA) from ftsj1 KO cells or with m1G37; 10 mM MgCl2, pH 7.5, 37°C, 2 h
T1 construct: mixture of FTSJ1 (C-terminal His6, High Five cells) and WDR6 (N-terminal GST, Sf9 cells), purified separately; binary complex; with tRNA (34-2'-O)-methyltransferase regulator WDR6
T1 sequence (Q9UET6 1-327 isoform Q9UET6-2): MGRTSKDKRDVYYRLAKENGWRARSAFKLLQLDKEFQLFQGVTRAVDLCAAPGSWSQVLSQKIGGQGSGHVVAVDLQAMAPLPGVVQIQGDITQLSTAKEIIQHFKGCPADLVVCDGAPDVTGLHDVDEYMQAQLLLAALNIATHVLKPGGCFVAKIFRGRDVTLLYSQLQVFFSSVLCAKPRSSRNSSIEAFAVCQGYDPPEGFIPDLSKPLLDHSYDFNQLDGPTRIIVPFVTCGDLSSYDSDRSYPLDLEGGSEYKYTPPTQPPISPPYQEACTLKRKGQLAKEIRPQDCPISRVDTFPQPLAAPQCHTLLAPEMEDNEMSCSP
T1 sequence (Q9NNW5 1-1121 partner): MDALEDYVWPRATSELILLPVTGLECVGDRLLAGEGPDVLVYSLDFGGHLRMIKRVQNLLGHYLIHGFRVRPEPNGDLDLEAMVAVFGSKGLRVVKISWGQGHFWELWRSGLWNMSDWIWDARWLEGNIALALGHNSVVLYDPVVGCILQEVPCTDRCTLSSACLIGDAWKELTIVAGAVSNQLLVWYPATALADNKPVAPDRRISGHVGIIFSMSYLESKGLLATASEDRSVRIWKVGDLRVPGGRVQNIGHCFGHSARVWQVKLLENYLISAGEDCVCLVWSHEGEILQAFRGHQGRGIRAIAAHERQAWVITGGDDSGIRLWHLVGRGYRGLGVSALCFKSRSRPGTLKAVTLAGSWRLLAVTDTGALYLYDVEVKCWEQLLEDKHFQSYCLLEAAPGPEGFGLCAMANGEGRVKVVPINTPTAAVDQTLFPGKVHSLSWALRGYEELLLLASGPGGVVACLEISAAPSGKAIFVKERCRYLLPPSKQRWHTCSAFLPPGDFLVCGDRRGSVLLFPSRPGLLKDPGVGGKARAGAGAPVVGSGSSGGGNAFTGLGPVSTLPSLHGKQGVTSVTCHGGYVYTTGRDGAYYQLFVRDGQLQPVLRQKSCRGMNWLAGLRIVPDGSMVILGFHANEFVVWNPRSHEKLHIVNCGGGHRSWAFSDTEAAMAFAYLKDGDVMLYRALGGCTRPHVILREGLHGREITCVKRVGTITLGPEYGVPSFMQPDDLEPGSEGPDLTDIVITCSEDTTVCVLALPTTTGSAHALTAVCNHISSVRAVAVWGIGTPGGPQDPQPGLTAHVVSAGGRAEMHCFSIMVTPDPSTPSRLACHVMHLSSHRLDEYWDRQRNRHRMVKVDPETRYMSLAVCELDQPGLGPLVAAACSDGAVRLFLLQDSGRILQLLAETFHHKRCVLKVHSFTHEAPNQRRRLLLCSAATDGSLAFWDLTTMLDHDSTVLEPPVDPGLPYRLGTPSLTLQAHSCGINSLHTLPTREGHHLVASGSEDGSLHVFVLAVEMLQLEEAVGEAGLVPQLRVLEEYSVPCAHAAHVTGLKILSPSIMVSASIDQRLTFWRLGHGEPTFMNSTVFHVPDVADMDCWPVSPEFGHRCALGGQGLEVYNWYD

FTSJ1 (FTSJ1-His) = biological target: T2, FTSJ1 (FTSJ1-His) (Homo sapiens, UniProt Q9UET6); experiment: isothermal titration calorimetry (iTC200), one-site model; type: binding
T2 construct: full-length, C-terminal His6-tag kept, baculovirus/High Five insect cells; cDNA from HeLa RNA; 327 residues as printed
T2 sequence (Q9UET6 1-327 isoform Q9UET6-2): T1 sequence (Q9UET6 1-327 isoform Q9UET6-2)

Kd (FTSJ1 (FTSJ1-His)): ~4 µM
SMILES: C[S+](CC[C@H](N)C(=O)O)C[C@H]1O[C@@H](n2cnc3c(N)ncnc32)[C@H](O)[C@@H]1O (some centres unmarked) [SAM]
tRNA 2'-O-methyl transfer, UPLC-MS/MS of Gm34 (FTSJ1-WDR6): robust Gm formation was detected after incubation with FTSJ1‐WDR6
